{
  "source": "paper PMC6965176",
  "about": "“Targeting Forward and Reverse EphB4/EFNB2 Signaling by a Peptide with Dual Functions” (Scientific Reports, 2020)",
  "system": "EphB4 and Crk1 (MAPK14)",
  "assay": "EphB4 and Crk1 phosphorylation in A2780cp20 cells (IP/immunoblot)",
  "format": "cell-based, human",
  "settings": "50 nM (BIDEN-AP equivalent), 24 h after 16 h serum-free (Fig. S7A)",
  "description": "Next, we determined the phosphorylation of EphB4 and its downstream adaptor protein Crk1 (MAPK14) in lysates from human A2780cp20 ovarian cancer cells by immunoprecipitation with anti-EphB4 and anti-Crk1 antibodies followed by immunoblotting with phospho-specific antibodies. […] In comparison, Alexa647-labeled antagonist TNYL-RAW was excluded.\nFigure 2 BIDEN-AP acts as an EphB4 agonist. (A) BIDEN-AP induced phosphorylation of EphB4 and the associated MAPK14 (Crk1). […] The uncropped blots are presented in Supplemental Figure 11. (B) BIDEN-AP inhibited A2780cp20 cell invasion compared to untreated controls (CTL). A modified Boyden transwell chamber coated with Matrigel was used. Representative data from three independent experiments using A2780cp20 cells are presented. Each experiment was repeated in triplicate. Data are shown as mean ± SD. ***p < 0.001 by unpaired, two-sided Student t-test. […]\ncalculated as Koff/Kon. […]\nThe capacity of BIDEN-AP to inhibit the binding of EFNB2 to EphB4 was assessed in a competitive binding assay. […] After each injection, the signal from the control flow cell was subtracted and the relative amount of EphB4 bound to EFNB2-Fc was recorded as the net response over the pre-injection baseline level. […]\nThe protein concentrations were determined by using a BCA Protein Assay Reagent kit (Pierce Biotechnology, Rockford, IL). […]",
  "note": "Non-standard residues stand in square brackets, D forms with d. No end group written: not given here.",
  "data": [
    {"substance": "CCPM-BIDEN-AP: nanoconjugate of BIDEN-AP with core-crosslinked polymeric micelles (CCPM) (TN[dY]LFSPNGPIARAW; also: conjugated to core-crosslinked polymeric micelles (CCPM))", "values": [
      {"measurement": "EphB4 and Crk1 phosphorylation in vitro (agonist activity)", "value": "potent agonist activity"}
    ]}
  ]
}
